The test system of one series is INS-1 β-cells. The experiment in a line: Insulin secretion by rat INS-1 / INS-1E insulinoma cells. The note with it: INS-1E cells, 0.5 mM glucose, single representative experiment. Type of series: cell-based. On the procedure:
The incubation was done using two types of culture media, defined as low glucose (0.5–3 mM) and high glucose (15 mM). […] Incubation with compounds lasted 30 min, and then the media was collected, centrifuged at 4 °C for 2 min until assayed for insulin using commercial ELISA kit.

A further series has as its system EndoC-βH1 cells. Put plainly: Insulin secretion by human pancreatic EndoC-βH1 cells. The note with it: high glucose concentration. Type of series: cell-based. As for the experimental part: Both cell lines were cultured in RPMI 1640 medium supplemented with 10% fetal calf serum as described. Cell monolayers were incubated at 37 °C in a 7.5% CO2 atmosphere. For insulin secretion studies, cells were detached, washed once with glucose-free medium and placed in 48 multiwell plates (100,000 cells per well) and kept in glucose-free medium for 1.5 h prior to incubation with drugs. The incubation was done using two types of culture media, defined as low glucose (0.5–3 mM) and high glucose (15 mM). […] Incubation with compounds lasted 30 min, and then the media was collected, centrifuged at 4 °C for 2 min until assayed for insulin using commercial ELISA kit.

The target in a further series is hGLP-1R (Homo sapiens, UniProt P43220). Put plainly: cAMP accumulation in HEK-293 cells expressing hGLP-1R (HEK-GLP-1 cells). The note with it: HEK293, read-out: Potentiation of GLP-1 Emax at 10 ?M in a cAMP assay (%); 10 ?M compound (supplementary csv). It is filed as cell-based. On the procedure:
After this time the culture medium was replaced by 20 μL fresh Opti-MEM containing 500 μM IBMX and 100 μM K579 and incubated with gentle stirring for 10 min at rt. […] Concentration-response curves were fitted to a 4-parameter logistic equation by using GraphPad Prism 2.1 software.
A general note: Changes in cAMP serve as a functional read-out for many G protein-coupled receptors.

Data on 16 compounds can be found in article PMC9014410, “Discovery of V-0219: A Small-Molecule Positive Allosteric Modulator of the Glucagon-Like Peptide-1 Receptor toward Oral Treatment for “Diabesity”” (Journal of Medicinal Chemistry, 2022).

Molecules are shown by their SMILES. A value given as a limit tells only on which side of the number the result lay.

hGLP-1R, sequence (P43220 24-463): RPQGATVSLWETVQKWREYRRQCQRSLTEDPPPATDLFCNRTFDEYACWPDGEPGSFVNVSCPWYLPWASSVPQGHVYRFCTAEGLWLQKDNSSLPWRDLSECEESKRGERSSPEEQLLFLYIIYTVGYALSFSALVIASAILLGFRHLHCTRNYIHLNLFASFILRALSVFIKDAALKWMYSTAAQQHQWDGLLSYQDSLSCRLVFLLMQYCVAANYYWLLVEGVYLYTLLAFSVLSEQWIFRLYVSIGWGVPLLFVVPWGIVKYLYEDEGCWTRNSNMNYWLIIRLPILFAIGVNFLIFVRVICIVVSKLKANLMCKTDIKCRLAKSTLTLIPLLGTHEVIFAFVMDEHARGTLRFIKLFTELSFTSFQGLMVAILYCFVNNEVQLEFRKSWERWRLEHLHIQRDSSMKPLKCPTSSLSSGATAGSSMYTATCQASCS

The melting point is the temperature, or range, at which the solid turns liquid. `Cl.NC(=O)C1CCN(Cc2nc(-c3ccc(C(F)(F)F)cc3)no2)CC1` [compound 7, 1-({3-[4-(Trifluoromethyl)phenyl]-1,2,4-oxadiazol-5-yl}methyl)piperidine-4-carboxamide] gave a melting point of 187 to 188 °C.
Consider `FC(F)(F)c1ccc(-c2noc(CN3CCC[C@H](CN4CCOCC4)C3)n2)cc1` [(R)-9, (−)-4-{[(3R)-1-({3-[4-(Trifluoromethyl)phenyl]-1,2,4-oxadiazol-5-yl}methyl)piperidin-3-yl]methyl}morpholine], for which the results for the “Insulin secreted” value in the series with INS-1 β-cells (0.1 nM test substance), in the series on INS-1 β-cells (1 nM test substance) and with INS-1 β-cells (10 nM test substance) were 19 ng/mL, 31 ng/mL and 39 ng/mL, respectively. Also, the “potentiation of insulin secretion stimulated by GLP-1 (in words)” value in the series on EndoC-βH1 cells was “similarly potentiate insulin secretion stimulated by GLP-1”.
As for `CC[C@H](C)[C@H](NC(=O)[C@H](Cc1ccccc1)NC(=O)[C@H](CCC(=O)O)NC(=O)[C@H](CCCCN)NC(=O)[C@H](C)NC(=O)[C@H](C)NC(=O)[C@H](CCC(N)=O)NC(=O)CNC(=O)[C@H](CCC(=O)O)NC(=O)[C@H](CC(C)C)NC(=O)[C@H](Cc1ccc(O)cc1)NC(=O)[C@H](CO)NC(=O)[C@H](CO)NC(=O)[C@@H](NC(=O)[C@H](CC(=O)O)NC(=O)[C@H](CO)NC(=O)[C@@H](NC(=O)[C@H](Cc1ccccc1)NC(=O)[C@@H](NC(=O)CNC(=O)[C@H](CCC(=O)O)NC(=O)[C@H](C)NC(=O)[C@@H](N)Cc1c[nH]cn1)[C@@H](C)O)[C@@H](C)O)C(C)C)C(=O)N[C@@H](C)C(=O)N[C@@H](Cc1c[nH]c2ccccc12)C(=O)N[C@@H](CC(C)C)C(=O)N[C@H](C(=O)N[C@@H](CCCCN)C(=O)NCC(=O)N[C@@H](CCCNC(=N)N)C(N)=O)C(C)C` [GLP-1, GLP-1(7-36)-NH2, reference compound], the “Insulin secreted” value in the series with INS-1 β-cells (0.1 nM test substance) was found to be 25 ng/mL; with INS-1 β-cells (1 nM test substance), 28 ng/mL; with INS-1 β-cells (10 nM test substance), 34 ng/mL; with INS-1 β-cells (100 nM test substance) it was 32 ng/mL.
The Emax is the greatest response seen or fitted, relative to the assay's reference. As to `O=S(=O)(NC1CCN(Cc2nc(-c3ccc(C(F)(F)F)cc3)no2)CC1)c1ccccc1F` [S12], the maximal effect (Emax) on hGLP-1R was below 30%.
Still for that read-out and setting: the result for `CCCS(=O)(=O)NC(=O)CC1CCN(Cc2nc(-c3ccc(C(F)(F)F)cc3)no2)CC1` [S53] reads below 30%.
On the same count and under the same terms, under `CCCS(=O)(=O)NCC1CCN(Cc2nc(-c3ccc(C(F)(F)F)cc3)no2)CC1` [S21] stands below 30%; under `O=S(=O)(NC1CCN(Cc2nc(-c3ccc(C(F)(F)F)cc3)no2)CC1)c1ccc(C(F)(F)F)cc1` [S16], below 30%.
On the same count and under the same terms, the result for `COc1ccc(-c2noc(CN3CCCC(CN4CCOCC4)C3)n2)cc1` (stereo not shown) [S72] reads below 30%; that for `CC(=O)c1cccc(S(=O)(=O)NCC2CCN(Cc3nc(-c4ccc(C(F)(F)F)cc4)no3)CC2)c1` [S23], below 30%.
In the case of `Fc1ccccc1-c1noc(CN2CCCC(CN3CCOCC3)C2)n1` (stereo not shown) [S76], the maximal effect (Emax) on hGLP-1R was below 30%.
Still for that read-out and setting: the result for `Clc1ccc(-c2noc(CN3CCCC(CN4CCOCC4)C3)n2)cc1` (stereo not shown) [S81] reads below 30%; that for `O=S(=O)(NCC1CCN(Cc2nc(-c3ccc(C(F)(F)F)cc3)no2)CC1)c1ccc(OC(F)(F)F)cc1` [S36], below 30%; that for `O=C(NS(=O)(=O)c1cccc(Cl)c1)C1CCN(Cc2nc(-c3ccc(C(F)(F)F)cc3)no2)CC1` [S45], below 30%.
On the same count and under the same terms, under `CC(=O)c1cccc(S(=O)(=O)NC(=O)CC2CCN(Cc3nc(-c4ccc(C(F)(F)F)cc4)no3)CC2)c1` [S55] stands below 30%; under `N#Cc1ccc(S(=O)(=O)NCC2CCN(Cc3nc(-c4ccc(C(F)(F)F)cc4)no3)CC2)cc1` [S27], below 30%; under `CS(=O)(=O)NC(=O)CC1CCN(Cc2nc(-c3ccc(C(F)(F)F)cc3)no2)CC1` [S52], below 30%.
